Assay results as given in ChEMBL document CHEMBL5338748, “Structure-Based Discovery of a New Selectivity-Enabling Motif for the FK506-Binding Protein 51” (J Med Chem, 2023).
Activity calls are given as the source filed them. The calls are words filed in the database; no cut-off is given here.

Tests used:
[1] = molecular target: T1, Peptidyl-prolyl cis-trans isomerase FKBP4 (Homo sapiens, UniProt Q02790); test: Binding affinity to FKBP52 (unknown origin) assessed as inhibition constant by fluorescence polarization assay
T1 sequence (Q02790 whole entry): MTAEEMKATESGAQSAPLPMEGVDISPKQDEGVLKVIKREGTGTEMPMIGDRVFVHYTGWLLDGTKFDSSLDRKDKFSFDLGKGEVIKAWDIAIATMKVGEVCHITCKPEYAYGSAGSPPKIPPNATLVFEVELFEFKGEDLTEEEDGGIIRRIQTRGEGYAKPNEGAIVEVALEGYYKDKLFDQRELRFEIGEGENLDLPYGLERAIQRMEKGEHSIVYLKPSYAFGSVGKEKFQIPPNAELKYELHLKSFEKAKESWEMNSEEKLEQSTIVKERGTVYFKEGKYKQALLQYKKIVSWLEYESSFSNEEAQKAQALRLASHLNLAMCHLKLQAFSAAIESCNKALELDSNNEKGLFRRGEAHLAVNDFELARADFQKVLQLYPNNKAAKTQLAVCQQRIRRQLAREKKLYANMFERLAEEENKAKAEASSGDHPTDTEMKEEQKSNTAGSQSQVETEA

[2] = molecular target: T2, Peptidyl-prolyl cis-trans isomerase FKBP5 (Homo sapiens, UniProt Q13451); test: Binding affinity to FKBP51 (unknown origin) assessed as inhibition constant by fluorescence polarization assay
T2 sequence (Q13451 whole entry): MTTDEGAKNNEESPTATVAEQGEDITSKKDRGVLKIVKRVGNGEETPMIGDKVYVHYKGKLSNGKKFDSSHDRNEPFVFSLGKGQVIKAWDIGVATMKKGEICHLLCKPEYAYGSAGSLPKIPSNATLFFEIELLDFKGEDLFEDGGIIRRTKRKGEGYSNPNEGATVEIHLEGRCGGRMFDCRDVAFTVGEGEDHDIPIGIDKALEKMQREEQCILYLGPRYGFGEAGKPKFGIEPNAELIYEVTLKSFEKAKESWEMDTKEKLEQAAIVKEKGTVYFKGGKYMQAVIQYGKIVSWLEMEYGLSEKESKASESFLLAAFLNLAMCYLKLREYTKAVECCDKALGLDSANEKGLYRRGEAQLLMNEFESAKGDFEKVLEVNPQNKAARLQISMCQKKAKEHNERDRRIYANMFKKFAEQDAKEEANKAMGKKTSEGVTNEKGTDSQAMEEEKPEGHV

[3] = molecular target: T2, Peptidyl-prolyl cis-trans isomerase FKBP5; test: Inhibition of FKBP51 (unknown origin) expressed in HEK293T cells incubated for 2 hrs by NanoBRET assay; type: cell-based
[4] = molecular target: T1, Peptidyl-prolyl cis-trans isomerase FKBP4; test: Inhibition of FKBP52 (unknown origin) expressed in HEK293T cells incubated for 2 hrs by NanoBRET assay; type: cell-based
[5] = Cmax in C57BL/6 mouse at 10 mg/kg, ip measured after 6 hrs; type: ADME, organism-based; design: time 6 hrs, dose 10 mg/kg, route ip; settings: in vivo
[6] = Tmax in C57BL/6 mouse at 10 mg/kg, ip measured after 6 hrs; type: ADME, organism-based; settings: in vivo
[7] = Half life in C57BL/6 mouse at 10 mg/kg, ip measured after 6 hrs; type: ADME, organism-based; settings: in vivo
[8] = Volume of distribution in C57BL/6 mouse at 10 mg/kg, ip measured after 6 hrs; type: ADME, organism-based; settings: in vivo
[9] = molecular target: Transient receptor potential cation channel subfamily V member 1 (Mus musculus) (UniProt Q704Y3); test: Desensitization of TRPV1 in naive C57BL/Nrj mouse dorsal root ganglion primary sensory neurons assessed as reduction in capsaicin-stimulated calcium influx at 1 uM preincubated for 2 mins followed by capsaicin stimulation and measured after 20 secs relative to control; type: tissue-based; design: scale not given: the % may be the effect or the level left; settings: Primary sensory neuron, time 140.0 sec
Sequence of Transient receptor potential cation channel subfamily V member 1 (Mus musculus) (Q704Y3 whole entry): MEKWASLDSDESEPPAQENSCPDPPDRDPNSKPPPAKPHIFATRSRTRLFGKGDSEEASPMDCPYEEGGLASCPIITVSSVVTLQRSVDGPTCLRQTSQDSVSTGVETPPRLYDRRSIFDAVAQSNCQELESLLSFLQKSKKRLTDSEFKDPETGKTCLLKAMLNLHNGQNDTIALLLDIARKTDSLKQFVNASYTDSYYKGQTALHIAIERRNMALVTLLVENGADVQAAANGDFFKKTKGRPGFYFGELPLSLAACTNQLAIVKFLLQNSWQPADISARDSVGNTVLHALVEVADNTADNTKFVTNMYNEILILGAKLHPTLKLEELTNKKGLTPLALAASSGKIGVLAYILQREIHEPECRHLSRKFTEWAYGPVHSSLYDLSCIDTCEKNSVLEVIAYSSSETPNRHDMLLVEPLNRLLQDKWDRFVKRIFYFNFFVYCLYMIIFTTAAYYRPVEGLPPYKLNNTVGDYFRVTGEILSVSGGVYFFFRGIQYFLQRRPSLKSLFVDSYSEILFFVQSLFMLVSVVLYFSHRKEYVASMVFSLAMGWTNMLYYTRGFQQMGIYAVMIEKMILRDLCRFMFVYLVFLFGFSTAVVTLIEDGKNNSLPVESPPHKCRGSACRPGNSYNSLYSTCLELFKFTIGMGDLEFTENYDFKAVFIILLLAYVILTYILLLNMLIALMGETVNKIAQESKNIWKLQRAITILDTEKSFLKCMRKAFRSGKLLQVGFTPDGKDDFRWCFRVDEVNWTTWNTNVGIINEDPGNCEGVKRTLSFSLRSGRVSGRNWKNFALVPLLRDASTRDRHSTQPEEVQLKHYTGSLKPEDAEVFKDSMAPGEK

[10] = Drug accumulation in C57BL/6 mouse gonadal white adipose tissue at 10 mg/kg, ip administered as single dose and measured after 6 hrs; type: ADME, organism-based; settings: in vivo
[11] = Drug penetration in C57BL/6 mouse brain at 10 mg/kg, ip administered as single dose and measured after 6 hrs; type: ADME, organism-based; settings: in vivo
[12] = molecular target: T2, Peptidyl-prolyl cis-trans isomerase FKBP5; test: Binding affinity to FKBP51 (unknown origin)
[13] = molecular target: Transient receptor potential cation channel subfamily V member 1 (Mus musculus) (UniProt Q704Y3); test: Desensitization of TRPV1 in C57BL/Nrj mouse dorsal root ganglion primary sensory neurons assessed as reduction in capsaicin-stimulated calcium influx at 0.5 uM preincubated for 2 mins followed by capsaicin stimulation and measured after 20 secs; type: tissue-based; settings: Primary sensory neuron, time 140.0 sec

SMILES | Ki [1] [nM] | Ki [2] [nM] | further results
COc1ccc(CC[C@@H](OC(=O)[C@@H]2CCCCN2C(=O)[C@H](c2cc(OC)c(OC)c(OC)c2)C2CCCCC2)c2cccc(OCC(=O)O)c2)cc1OC | 3860 | 6 | –
COc1ccc(CC[C@@H](OC(=O)[C@@H]2CCCCN2C(=O)[C@H](C)c2ccc(Cl)s2)c2cccc(OCC(=O)O)c2)cc1OC | > 50000 | 300 | –
CCc1ccc([C@H](C(=O)N2CCCC[C@H]2C(=O)O[C@H](CCc2ccc(OC)c(OC)c2)c2cccc(OCC(=O)O)c2)c2cc(OC)c(OC)c(OC)c2)s1 | > 1000 | 13 | –
COc1ccc(CC[C@@H](OC(=O)[C@@H]2CCCCN2C(=O)[C@H](c2cc(OC)c(OC)c(OC)c2)c2ccc(Br)s2)c2cccc(OCC(=O)O)c2)cc1OC | 436 | 7 | –
COc1ccc(CC[C@@H](OC(=O)[C@@H]2CCCCN2C(=O)[C@H](c2cc(OC)c(OC)c(OC)c2)c2cccs2)c2cccc(OCC(=O)O)c2)cc1OC | 10200 | 103 | –
COc1ccc(CC[C@@H](OC(=O)[C@@H]2CCCCN2C(=O)C(c2cccs2)C2CCCCC2)c2cccc(OCC(=O)O)c2)cc1OC (stereo partly specified) | > 30000 | 442 | –
CC[C@@H](C(=O)N1CCCC[C@H]1C(=O)O[C@H](CCc1ccc(OC)c(OC)c1)c1cccc(OCC(=O)O)c1)c1ccc(Cl)s1 | > 10000 | 210 | –
COc1ccc(CCC(OC(=O)C2CCCCN2C(=O)[C@H](c2cc(OC)c(OC)c(OC)c2)c2ccc(Cl)s2)c2cccc(OCCN3CCOCC3)c2)cc1OC (single isomer, unassigned) | 774 | 19 | IC50 [3]: 584 nM; IC50 [4]: 2900 nM; Cmax [5]: 990 ng/mL; Tmax [6]: 0.5 h; half-life [7]: 4.3 h; Vd [8]: 0.3 L; Activity [9]: 50%; Drug uptake [10]: Active; Drug uptake [11]: Active
COc1ccc(CC[C@H]2OC(=O)[C@@H]3CCCCN3C(=O)[C@@H](C3CCCCC3)c3cc(OC)c(OC)c(c3)OC[C@H](O)[C@H](O)COc3cccc2c3)cc1OC | – | – | Ki [12]: 5 nM
COc1ccc(CC[C@@H](OC(=O)[C@@H]2CCCCN2C(=O)[C@H](c2cc(OC)c(OC)c(OC)c2)c2ccc(C3CC3)s2)c2cccc(OCC(=O)O)c2)cc1OC | > 1000 | 41 | –
COc1ccc(CC[C@@H](OC(=O)[C@@H]2CCCCN2C(=O)[C@H](c2cc(OC)c(OC)c(OC)c2)c2ccc(C#N)s2)c2cccc(OCC(=O)O)c2)cc1OC | 2730 | 23 | –
COc1ccc(CC[C@@H](OC(=O)[C@@H]2CCCCN2C(=O)[C@@H](c2ccsc2)c2cc(OC)c(OC)c(OC)c2)c2cccc(OCC(=O)O)c2)cc1OC | 18000 | 140 | –
COc1ccc(CC[C@@H](OC(=O)[C@@H]2CCCCN2C(=O)[C@H](c2cc(OC)c(OC)c(OC)c2)c2ccc(C)s2)c2cccc(OCC(=O)O)c2)cc1OC | 1030 | 7 | –
COc1ccc(CC[C@H]2OC(=O)[C@@H]3CCCCN3C(=O)[C@@H](C3CCCCC3)NC(=O)C3(CC3)NC(=O)COc3cccc2c3)cc1OC | – | – | Ki [12]: 400 nM
COc1ccc(CCC(OC(=O)C2CCCCN2C(=O)[C@H](c2cc(OC)c(OC)c(OC)c2)c2ccc(C)s2)c2cccc(OCCN3CCOCC3)c2)cc1OC (single isomer, unassigned) | 775 | 17 | IC50 [3]: 613 nM; Activity [9]: 50%; Activity [13]: Active
COc1ccc(CC[C@@H](OC(=O)[C@@H]2CCCCN2C(=O)C(c2ccc(Cl)s2)C2CCCCC2)c2cccc(OCC(=O)O)c2)cc1OC (stereo partly specified) | > 10000 | 154 | –
COc1ccc(CC[C@@H](OC(=O)[C@@H]2CCCCN2C(=O)[C@@H](c2ccccc2)c2cc(OC)c(OC)c(OC)c2)c2cccc(OCC(=O)O)c2)cc1OC | 43800 | 118 | –
C=CC[C@@H](C(=O)N1CCCC[C@H]1C(=O)O[C@H](CCc1ccc(OC)c(OC)c1)c1cccc(OCC(=O)O)c1)c1ccc(Cl)s1 | > 10000 | 223 | –
COc1ccc(CC[C@@H](OC(=O)[C@@H]2CCCCN2C(=O)[C@H](c2cc(OC)c(OC)c(OC)c2)c2ccc(Cl)s2)c2cccc(OCC(=O)O)c2)cc1OC | 950 | 4 | –
COc1ccc(CC[C@@H](OC(=O)[C@@H]2CCCCN2C(=O)[C@@H](CN2CCOCC2)c2cc(OC)c(OC)c(OC)c2)c2cccc(OCC(=O)O)c2)cc1OC | 2160 | 8 | IC50 [3]: 196 nM; IC50 [4]: 3180 nM; Cmax [5]: 3060 ng/mL; Tmax [6]: 1 h; half-life [7]: 3.7 h; Vd [8]: 0.1 L
